Tested on: Mycobacterium bovis BCG-lux grown in human monocyte-derived macrophages
Format: cell-based

Structure (SMILES)	effect on BCG-lux viability (in words)	antibiotic efficacy (in words)	antimycobacterial activity (in words)	increase of BCG-lux bioluminescence compared to untreated cells [%]	reduction of BCG-lux bioluminescence [%]	viability lower than control cells [%]
CC[C@@H](CO)NCCN[C@@H](CC)CO [EMB, ethambutol]	did not reduce BCG-lux viability					
NNC(=O)c1ccncc1 [INH, isoniazid]		equivalent to the antibiotic efficacy of E80 nanoparticles	no antimycobacterial activity	32	53	15

Source: patent publication US11020408B2, “Polymer composed of repeat units having a biologically active molecule attached thereto via a pH-sensitive bond” (SPIREA LIMITED, priority 2014, dated 2021)
